In patent US20240391926A1, “SPIROINDOLINONE COMPOUNDS AS Kv1.3 POTASSIUM SHAKER CHANNEL BLOCKERS” (D.E. Shaw Research, LLC, priority 2021, published 2024):

What follows are compounds tested against T1, Kv1.3 potassium channel (Homo sapiens, UniProt P22001) (assay: Kv1.3 potassium channel blocker activity, automated whole-cell patch clamp (Patchliner) in CHO-K1 cells stably expressing Kv1.3). Details: 30 nM-100 μM.
T1 construct: expressed in transfected cells
Type: cell-based
Method: This assay is used to evaluate the disclosed compounds' activities as Kv1.3 potassium channel blockers.
CHO-K1 cells stably expressing Kv1.3 were grown in DMEM containing 10% heat-inactivated FBS, 1 mM sodium pyruvate, 2 mM L-glutamine, and G418 (500 μg/ml). Cells were grown in culture flasks at 37° C. in a 5% CO2-humidified incubator.
The cells were bathed in an extracellular solution containing 140 mM NaCl, 4 mM KCl, 2 mM CaCl2), 1 mM MgCl2, 5 mM glucose, 10 mM HEPES; pH adjusted to 7.4 with NaOH; 295-305 mOsm. The internal solution contained 50 mM KCl, 10 mM NaCl, 60 mM KF, 20 mM EGTA, 10 mM HEPES; pH adjusted to 7.2 with KOH; 285 mOsm. All compounds were dissolved in DMSO at 30 mM. Compound stock solutions were freshly diluted with external solution to concentrations of 30 nM, 100 nM, 300 nM, 1 μM, 3 μM, 10 μM, 30 μM and 100 μM. The highest content of DMSO (0.3%) was present in 100 μM.
The currents were evoked by applying 100 ms depolarizing pulses from −90 mV (holding potential) to +40 mV were applied with 0.1 Hz frequency. Control (compound-free) and compound pulse trains for each compound concentration applied contained 20 pulses. 10-second breaks were used between pulse trains (see Table A below).
Whole-cell current recordings and compound application were enabled by means of an automated patch clamp platform Patchliner (Nanion Technologies GmbH). EPC 10 patch clamp amplifier (HEKA Elektronik Dr. Schulze GmbH) along with Patchmaster software (HEKA Elektronik Dr. Schulze GmbH) was used for data acquisition. Data were sampled at 10 kHz without filtering. Passive leak currents were subtracted online using a P/4 procedure (HEKA Elektronik Dr. Schulze GmbH). Increasing compound concentrations were applied consecutively to the same cell without washouts in between. Total compound incubation time before the next pulse train was not longer than 10 seconds. Peak current inhibition was observed during compound equilibration.
AUC and peak values were obtained with Patchmaster (HEKA Elektronik Dr. Schulze GmbH). To determine IC50, the last single pulse in the pulse train corresponding to a given compound concentration was used. Obtained AUC and peak values in the presence of compound were normalized to control values in the absence of compound. Using Origin (OridinLab), IC50 was derived from data fit to Hill equation: Icompound/Icontrol=(100−A)/(1+([compound]/IC50)nH)+A, where IC50 value is the concentration at which current inhibition is half-maximal, [compound] is the applied compound concentration, A is the fraction of current that is not blocked and nH is the Hill coefficient.

T1 sequence (P22001 whole entry): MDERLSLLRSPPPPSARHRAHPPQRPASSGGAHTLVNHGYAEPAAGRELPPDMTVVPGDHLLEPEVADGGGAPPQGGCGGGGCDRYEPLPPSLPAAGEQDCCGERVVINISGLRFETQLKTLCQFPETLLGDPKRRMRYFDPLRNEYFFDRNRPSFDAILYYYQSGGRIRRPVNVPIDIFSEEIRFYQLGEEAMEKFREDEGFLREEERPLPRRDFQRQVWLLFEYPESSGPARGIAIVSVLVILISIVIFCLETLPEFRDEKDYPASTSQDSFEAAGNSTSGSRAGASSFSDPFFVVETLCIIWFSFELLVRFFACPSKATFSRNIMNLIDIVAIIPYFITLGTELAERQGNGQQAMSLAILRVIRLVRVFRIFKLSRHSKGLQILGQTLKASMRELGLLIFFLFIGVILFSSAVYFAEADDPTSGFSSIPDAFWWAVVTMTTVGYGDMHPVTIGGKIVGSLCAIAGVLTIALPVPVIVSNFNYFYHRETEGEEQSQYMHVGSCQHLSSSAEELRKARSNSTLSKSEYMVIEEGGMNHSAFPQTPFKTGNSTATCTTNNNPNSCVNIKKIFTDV

Q: With `O=C(C[C@H](O)CO)N1CC[C@]2(C1)C(=O)Nc1cc(Cl)c(Cl)cc12` [Compound 76, (S)-5,6-dichloro-1′-((S)-3,4-dihydroxybutanoyl)spiro[indoline-3,3′-pyrrolidin]-2-one] as the compound, how does the IC50 read?
A: < 3 µM

Q: For `O=C(C[C@@H](O)CO)N1CC[C@]2(C1)C(=O)Nc1cc(Cl)c(Cl)cc12` [Compound 77, (S)-5,6-dichloro-1′-((R)-3,4-dihydroxybutanoyl)spiro[indoline-3,3′-pyrrolidin]-2-one], which IC50 is on record?
A: < 10 µM

Q: How did the IC50 turn out when `O=C(c1cnn(CCO)c1)N1CC[C@]2(C1)C(=O)Nc1cc(Cl)c(Cl)cc12` [Compound 78, (S)-5,6-dichloro-1′-(1-(2-hydroxyethyl)-1H-pyrazole-4-carbonyl)spiro[indoline-3,3′-pyrrolidin]-2-one] was run?
A: < 10 µM

Q: Which IC50 does the source give for `O=C(c1cc(CO)[nH]n1)N1CC[C@]2(C1)C(=O)Nc1cc(Cl)c(Cl)cc12` [Compound 79, (S)-5,6-dichloro-1′-(5-(hydroxymethyl)-1H-pyrazole-3-carbonyl)spiro[indoline-3,3′-pyrrolidin]-2-one] here?
A: < 3 µM

Q: Which IC50 does the source give for `O=C(c1cn[nH]c1CO)N1CC[C@]2(C1)C(=O)Nc1cc(Cl)c(Cl)cc12` [Compound 80, (S)-5,6-dichloro-1′-(5-(hydroxymethyl)-1H-pyrazole-4-carbonyl)spiro[indoline-3,3′-pyrrolidin]-2-one] here?
A: < 1 µM

Q: With `CN1CC(C(=O)N2CC[C@]3(C2)C(=O)Nc2cc(Cl)c(Cl)cc23)CC1=O` (stereo partly drawn) [Compound 81, (3S)-5,6-dichloro-1′-(1-methyl-5-oxopyrrolidine-3-carbonyl)spiro[indoline-3,3′-pyrrolidin]-2-one] as the compound, how does the IC50 read?
A: < 3 µM

Q: How did the IC50 turn out when `Cn1ccc(C(=O)N2CC[C@]3(C2)C(=O)Nc2cc(Cl)c(Cl)cc23)cc1=O` [Compound 82, (S)-5,6-dichloro-1′-(1-methyl-2-oxo-1,2-dihydropyridine-4-carbonyl)spiro[indoline-3,3′-pyrrolidin]-2-one] was run?
A: < 3 µM

Q: Which IC50 does the source give for `Cn1cc(C(=O)N2CC[C@]3(C2)C(=O)Nc2cc(Cl)c(Cl)cc23)ccc1=O` [Compound 83, (S)-5,6-dichloro-1′-(1-methyl-6-oxo-1,6-dihydropyridine-3-carbonyl)spiro[indoline-3,3′-pyrrolidin]-2-one] here?
A: < 10 µM

Q: Which IC50 does the source give for `Nc1ccc(C(=O)N2CC[C@]3(C2)C(=O)Nc2cc(Cl)c(Cl)cc23)cn1` [Compound 84, (S)-1′-(6-aminonicotinoyl)-5,6-dichlorospiro[indoline-3,3′-pyrrolidin]-2-one] here?
A: < 1 µM

Q: With `O=C(N1CC[C@]2(C1)C(=O)Nc1cc(Cl)c(Cl)cc12)C1(O)CC1` [Compound 85, (S)-5,6-dichloro-1′-(1-hydroxycyclopropane-1-carbonyl)spiro[indoline-3,3′-pyrrolidin]-2-one] as the compound, how does the IC50 read?
A: < 10 µM

Q: How did the IC50 turn out when `CC(C)(O)C(=O)N1CC[C@]2(C1)C(=O)Nc1cc(Cl)c(Cl)cc12` [Compound 86, (S)-5,6-dichloro-1′-(2-hydroxy-2-methylpropanoyl)spiro[indoline-3,3′-pyrrolidin]-2-one] was run?
A: < 3 µM

Q: With `CC(C)(O)CC(=O)N1CC[C@]2(C1)C(=O)Nc1cc(Cl)c(Cl)cc12` [Compound 87, (S)-5,6-dichloro-1′-(3-hydroxy-3-methylbutanoyl)spiro[indoline-3,3′-pyrrolidin]-2-one] as the compound, how does the IC50 read?
A: < 10 µM

Q: `C[C@H](O)CC(=O)N1CC[C@]2(C1)C(=O)Nc1cc(Cl)c(Cl)cc12` [Compound 88, (S)-5,6-dichloro-1′-((S)-3-hydroxybutanoyl)spiro[indoline-3,3′-pyrrolidin]-2-one] was tested. Which IC50 did it give?
A: < 3 µM

Q: How did the IC50 turn out when `C[C@@H](O)CC(=O)N1CC[C@]2(C1)C(=O)Nc1cc(Cl)c(Cl)cc12` [Compound 89, (S)-5,6-dichloro-1′-((R)-3-hydroxybutanoyl)spiro[indoline-3,3′-pyrrolidin]-2-one] was run?
A: < 3 µM

Q: How did the IC50 turn out when `O=C(CC1(O)CCC1)N1CC[C@]2(C1)C(=O)Nc1cc(Cl)c(Cl)cc12` [Compound 90, (S)-5,6-dichloro-1′-(2-(1-hydroxycyclobutyl)acetyl)spiro[indoline-3,3′-pyrrolidin]-2-one] was run?
A: < 10 µM

Q: How did the IC50 turn out when `CC[C@H](O)C(=O)N1CC[C@]2(C1)C(=O)Nc1cc(Cl)c(Cl)cc12` [Compound 91, (S)-5,6-dichloro-1′-((S)-2-hydroxybutanoyl)spiro[indoline-3,3′-pyrrolidin]-2-one] was run?
A: < 3 µM

Q: `CC[C@@H](O)C(=O)N1CC[C@]2(C1)C(=O)Nc1cc(Cl)c(Cl)cc12` [Compound 92, (S)-5,6-dichloro-1′-((R)-2-hydroxybutanoyl)spiro[indoline-3,3′-pyrrolidin]-2-one] was tested. Which IC50 did it give?
A: < 10 µM

Q: `COC[C@@H]1C[C@@H](C(=O)N2CC[C@]3(C2)C(=O)Nc2cc(Cl)c(Cl)cc23)CN1` [Compound 110, (3S)-5,6-dichloro-1′-[(3R,5S)-5-(methoxymethyl)pyrrolidine-3-carbonyl]-1H-spiro[indole-3,3′-pyrrolidin]-2-one] was tested. Which IC50 did it give?
A: < 1 µM

Q: `COC[C@H]1C[C@@H](C(=O)N2CC[C@]3(C2)C(=O)Nc2cc(Cl)c(Cl)cc23)CN1` [Compound 111, (S)-5,6-dichloro-1′-((3R,5R)-5-(methoxymethyl)pyrrolidine-3-carbonyl)spiro[indoline-3,3′-pyrrolidin]-2-one] was tested. Which IC50 did it give?
A: < 1 µM

Q: `O=C(CO)N1CC[C@@]2(C1)C(=O)Nc1cc(Cl)c(Br)cc12` [Compound 117, (R)-5-bromo-6-chloro-1′-(2-hydroxyacetyl)spiro[indoline-3,3′-pyrrolidin]-2-one] was tested. Which IC50 did it give?
A: < 10 µM

Q: With `O=C(CO)N1CC[C@]2(C1)C(=O)Nc1cc(Cl)c(Br)cc12` [Compound 118, (S)-5-bromo-6-chloro-1′-(2-hydroxyacetyl)spiro[indoline-3,3′-pyrrolidin]-2-one] as the compound, how does the IC50 read?
A: < 1 µM

Q: For `Cc1cc2c(cc1Cl)[C@@]1(CCN(C(=O)CO)C1)C(=O)N2` [Compound 119, (R)-5-chloro-1′-(2-hydroxyacetyl)-6-methylspiro[indoline-3,3′-pyrrolidin]-2-one], which IC50 is on record?
A: < 10 µM

Q: For `O=C(CO)N1CC[C@@]2(C1)C(=O)Nc1c2cc(Cl)c(Cl)c1Cl` [Compound 122, (3R)-5,6,7-trichloro-1′-(2-hydroxyacetyl)-1H-spiro[indole-3,3′-pyrrolidin]-2-one], which IC50 is on record?
A: < 3 µM

Q: How did the IC50 turn out when `Cc1c(Cl)cc2c(c1F)NC(=O)[C@@]21CCN(C(=O)CO)C1` [Compound 127, (S)-5-chloro-7-fluoro-1′-(2-hydroxyacetyl)-6-methylspiro[indoline-3,3′-pyrrolidin]-2-one] was run?
A: < 1 µM

Q: For `Nc1nnc(N2CC[C@]3(C2)C(=O)Nc2cc(Cl)c(Cl)cc23)o1` [Compound 132, (S)-1′-(5-amino-1,3,4-oxadiazol-2-yl)-5,6-dichlorospiro[indoline-3,3′-pyrrolidin]-2-one], which IC50 is on record?
A: < 3 µM

Q: For `O=C(c1cc[nH]c1)N1CC[C@]2(C1)C(=O)Nc1cc(Cl)c(Cl)cc12` [Compound 135, (S)-5,6-dichloro-1′-(1H-pyrrole-3-carbonyl)spiro[indoline-3,3′-pyrrolidin]-2-one], which IC50 is on record?
A: < 1 µM

Q: `O=C(c1nnc[nH]1)N1CC[C@]2(C1)C(=O)Nc1cc(Cl)c(Cl)cc12` [Compound 136, (S)-5,6-dichloro-1′-(1H-1,2,4-triazole-3-carbonyl)spiro[indoline-3,3′-pyrrolidin]-2-one] was tested. Which IC50 did it give?
A: < 1 µM

Q: How did the IC50 turn out when `O=C(c1cn[nH]n1)N1CC[C@]2(C1)C(=O)Nc1cc(Cl)c(Cl)cc12` [Compound 137, (S)-5,6-dichloro-1′-(1H-1,2,3-triazole-4-carbonyl)spiro[indoline-3,3′-pyrrolidin]-2-one] was run?
A: < 1 µM
